{
  "source": "patent US11712429B2",
  "about": "“Low eructation composition and methods for treating and/or preventing cardiovascular disease in a subject with fish allergy/hypersensitivity” (Amarin Pharmaceuticals Ireland Limited, priority 2010, dated 2023)",
  "origin": "cited, not measured here",
  "system": "subjects with AAMI",
  "details": "50 mg, cited from earlier work",
  "data": [
    {"smiles": "CN[C@@H](C)C/C=C/c1cncc(OC(C)C)c1", "note": "[Ispronicline]", "values": [
      {"measurement": "Power of Attention, mean", "setting": "Day 21, SD=61.22, placebo mean=28.25", "result": -32.54, "unit": "ms"},
      {"measurement": "benefit to Power of Attention (vs placebo)", "setting": "Day 21 of repeated dosing, subjects with AAMI", "result": 61, "unit": "ms"}
    ]}
  ]
}
